Laboratory results published in patent US11718813B2, “2-in-1 sanitizing and rinse aid compositions employing amine based surfactants in machine warewashing” (ECOLAB USA INC., priority 2020, dated 2023).

Legend:
[1] = Surface tension / critical micelle concentration on a tensiometer; format: physicochemical; settings: 0.001 to 1 wt % in DI water, FIG. 1
Experimental: All samples were run on a tensiometer with the concentration of the amine surfactants ranging from 0.001 to 1 wt % in up to 50 mL DI water.

[2] = system: E. coli; experiment: AOAC Official Method 960.09 Germicidal and Detergent Sanitizing Action of Disinfectants; format: cell-based
From the text: (§1) As used herein, the term “sanitizer” refers to an agent that reduces the number of bacterial contaminants to safe levels as judged by public health requirements. […] These reductions can be evaluated using a procedure set out in Germicidal and Detergent Sanitizing Action of Disinfectants, Official Methods of Analysis of the Association of Official Analytical Chemists, paragraph 960.09 and applicable sections, 15th Edition, 1990 (EPA Guideline 91-2). According to this reference a sanitizer should provide a 99.999% reduction (5-log order reduction) within 30 seconds at room temperature, 25±2° C., against several test organisms. […] Differentiation of antimicrobial “-cidal” or “-static” activity, the definitions which describe the degree of efficacy, and the official laboratory protocols for measuring this efficacy are considerations for understanding the relevance of antimicrobial agents and compositions. Antimicrobial compositions can affect two kinds of microbial cell damage. The first is a lethal, irreversible action resulting in complete microbial cell destruction or incapacitation. The second type of cell damage is reversible, such that if the organism is rendered free of the agent, it can again multiply. The former is termed microbiocidal and the later, microbiostatic. A sanitizer and a disinfectant are, by definition, agents which provide antimicrobial or microbiocidal activity.
(§2) In order to determine the efficacy of the amine-based surfactants in various environments as determined by different pH values, the surfactants were tested for antimicrobial efficacy on E. coli and Staphylococcus aureus.

[3] = system: Staphylococcus aureus; experiment: as above; format: cell-based; settings: pH 5, about 12.5 to about 400 ppm tested, 5-log reached only at the highest concentration tested
From the text: as §1, §2

[4] = Glewwe foam test; format: physicochemical; settings: foam height; 120 F; pH 8.5
Experimental: The ability of a defoaming agent to control the foaming profile of the surfactant was also tested.
The foam height never surpassed the maximum height of 3 inches allowed by the Glewwe test for a passing test and generally had no foam or a low froth present. Even at a 3:1 ratio of surfactant to defoamer, the fatty alcohol alkoxylate was sufficient to keep the foam low for machine ware washing. At lower ratios, such as 2:1 or 1:1 surfactant to defoamer, the level of foam was even better maintained at a low to nonexistent amount.

surface tension ([1]; pH 5): about 35 mN/m
surface tension ([1]; pH 7): about 35 mN/m
surface tension ([1]; pH 9): about 32 mN/m
Surfactant Foam Profile 0 min [4]: 9
Surfactant Foam Profile 15 sec [4]: 9
Surfactant Foam Profile 1 min [4]: 8
SMILES: CCCCCCCCCCCCN(CCCN)CCCN [bis(3-aminopropyl)dodecylamine]
log reduction ([2]; pH 5, about 12.5 to about 400 ppm tested, 5-log reached only at the highest concentration tested): < 5 log
concentration to achieve a 5-log reduction ([2]; pH 7): 50 ppm
log reduction [3]: < 5 log
